Experiments:
[1] = xn = mol fraction of the nth substance listed; conditions: 101 kPa, Liquid; for viscosity: Capillary tube (Ostwald / Ubbelohde) method; for mass density: Vibrating tube method
[2] = refractive index (Na D-line) (dimensionless); xn = mol fraction of the nth substance listed; conditions: 101 kPa, Liquid, Standard Abbe refractometry

ClC(Cl)Cl [trichloromethane] + CC(C)=O
Conditions	mass density, [1] [kg/m3]	refractive index, [2]	viscosity, [1] [mPa·s]
298.15 K, x2 = 0	1478.75	1.4422	0.5916
298.15 K, x2 = 0.0997	1419.64	1.4342	0.589
298.15 K, x2 = 0.1996	1357.58	1.4262	0.5814
298.15 K, x2 = 0.2993	1293.35	1.4192	0.5684
298.15 K, x2 = 0.3999	1226.35	1.4112	0.5412
298.15 K, x2 = 0.4979	1159.27	1.4029	0.5126
298.15 K, x2 = 0.599	1088.31	1.3941	0.4741
298.15 K, x2 = 0.6993	1016.22	1.3851	0.435
298.15 K, x2 = 0.8008	941.27	1.377	0.3975
298.15 K, x2 = 0.9006	864.78	1.3676	0.3443
303.15 K, x2 = 0	1469.16	1.4397	0.558
303.15 K, x2 = 0.0997	1409.35	1.4309	0.5571
303.15 K, x2 = 0.1996	1347.6	1.4252	0.5571
303.15 K, x2 = 0.2993	1284.12	1.418	0.5373
303.15 K, x2 = 0.3999	1217.87	1.4105	0.5156
303.15 K, x2 = 0.4979	1151.19	1.4019	0.4913
303.15 K, x2 = 0.599	1080.44	1.3924	0.4551
303.15 K, x2 = 0.6993	1008.68	1.3841	0.4188
303.15 K, x2 = 0.8008	934.43	1.3744	0.3802
303.15 K, x2 = 0.9006	858.83	1.3656	0.338
308.15 K, x2 = 0	1460.01	1.4356	0.5333
308.15 K, x2 = 0.0997	1402.33	1.4281	0.5329
308.15 K, x2 = 0.1996	1341.01	1.4215	0.5303
308.15 K, x2 = 0.2993	1276.96	1.4141	0.5185
308.15 K, x2 = 0.3999	1210.11	1.4055	0.4968
308.15 K, x2 = 0.4979	1143.34	1.3968	0.4693
308.15 K, x2 = 0.599	1073.05	1.3875	0.4396
308.15 K, x2 = 0.6993	1001.9	1.3791	0.4028
308.15 K, x2 = 0.8008	927.99	1.3702	0.3593
308.15 K, x2 = 0.9006	852.47	1.3601	0.3254
313.15 K, x2 = 0	1450.39	1.4338	0.5072
313.15 K, x2 = 0.0997	1393.77	1.4276	0.5067
313.15 K, x2 = 0.1996	1332.05	1.4202	0.4994
313.15 K, x2 = 0.2993	1268.04	1.4128	0.4876
313.15 K, x2 = 0.3999	1201.58	1.4048	0.468
313.15 K, x2 = 0.4979	1135.08	1.3965	0.4429
313.15 K, x2 = 0.599	1064.85	1.3873	0.4149
313.15 K, x2 = 0.6993	993.86	1.3787	0.383
313.15 K, x2 = 0.8008	920.68	1.3682	0.3453
313.15 K, x2 = 0.9006	846.27	1.3599	0.3056
318.15 K, x2 = 0	1440.03	1.4297	0.4849
318.15 K, x2 = 0.0997	1383.86	1.4244	0.4834
318.15 K, x2 = 0.1996	1322.43	1.4175	0.4798
318.15 K, x2 = 0.2993	1258.8	1.4094	0.4684
318.15 K, x2 = 0.3999	1192.83	1.4008	0.4483
318.15 K, x2 = 0.4979	1126.82	1.3929	0.4207
318.15 K, x2 = 0.599	1057.03	1.3839	0.389
318.15 K, x2 = 0.6993	986.42	1.3754	0.3583
318.15 K, x2 = 0.8008	913.61	1.365	0.3261
318.15 K, x2 = 0.9006	839.75	1.3548	0.2862

From the NIST ThermoML archive (doi:10.1016/j.fluid.2018.10.024)
